“And” between values parts separate entries of the source, which are not always exact repeats. Identical values can stand only once.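 Five compound concentrations were applied to cells in 96-well plates for 48 hours; endpoints were derived by simple linear interpolation of the resulting dose-response curve. GI50: concentration for 50% inhibition of growth. At the TGI there is no net growth.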
Legend:
Assay in all cases: NCI anticancer screen, dose series, 48 h
CCRF-CEM leukemia = tested on: CCRF-CEM leukemia
EKVX NSCLC = tested on: EKVX NSCLC
HCT-15 colon = tested on: HCT-15 colon
HT29 colon = tested on: HT29 colon
LOX IMVI melanoma = tested on: LOX IMVI melanoma
MDA-MB-231 breast = tested on: MDA-MB-231 breast
OVCAR-8 ovarian = tested on: OVCAR-8 ovarian
SNB-19 CNS = tested on: SNB-19 CNS
SW-620 colon = tested on: SW-620 colon
T-47D breast = tested on: T-47D breast

## COc1ccc(C(=C2C=CC=C2)c2ccc(OC)cc2)cc1
CCRF-CEM leukemia
  TGI: 53 µM
EKVX NSCLC
  TGI: > 100 µM
HCT-15 colon
  TGI: 74 µM
HT29 colon
  TGI: 66 µM
LOX IMVI melanoma
  TGI: 33.7 µM
MDA-MB-231 breast
  TGI: 34.8 µM
OVCAR-8 ovarian
  TGI: > 100 µM
SNB-19 CNS
  TGI: 74.8 µM
SW-620 colon
  TGI: > 100 µM
T-47D breast
  TGI: 57.7 µM

## NS(=O)(=O)c1nnc(NC(=O)Nc2ccc(Cl)c(Cl)c2)s1
CCRF-CEM leukemia
  TGI: 37.3 µM
EKVX NSCLC
  TGI: 94.6 µM
HCT-15 colon
  TGI: 50.7 µM
HT29 colon
  TGI: 37.9 µM
LOX IMVI melanoma
  TGI: 36.4 µM
MDA-MB-231 breast
  TGI: 67.1 µM
OVCAR-8 ovarian
  TGI: 49.9 µM
SNB-19 CNS
  TGI: 55.8 µM
SW-620 colon
  TGI: > 100 µM
T-47D breast
  TGI: 55.3 µM

## CC(C)=CCC[C@@H](C)c1c(O)c(O)c(C)c2nccnc12
CCRF-CEM leukemia
  TGI: > 36.5 µM
EKVX NSCLC
  TGI: > 100 µM
HCT-15 colon
  TGI: > 100 µM
HT29 colon
  TGI: > 65.6 µM
LOX IMVI melanoma
  TGI: > 100 µM
MDA-MB-231 breast
  TGI: > 100 µM
OVCAR-8 ovarian
  TGI: > 48.6 µM
SNB-19 CNS
  TGI: > 100 µM
SW-620 colon
  TGI: > 100 µM
T-47D breast
  TGI: > 79.8 µM

## O=C(/C=C/c1ccc2c(c1)OCO2)Cc1nc2ncccc2[nH]c1=O
CCRF-CEM leukemia
  TGI: > 100 µM
EKVX NSCLC
  TGI: > 100 µM
HCT-15 colon
  TGI: > 100 µM
HT29 colon
  TGI: > 100 µM
LOX IMVI melanoma
  TGI: > 100 µM
MDA-MB-231 breast
  TGI: > 100 µM
OVCAR-8 ovarian
  TGI: > 100 µM
SNB-19 CNS
  TGI: > 100 µM
SW-620 colon
  TGI: > 100 µM
T-47D breast
  TGI: > 100 µM

## Cc1ccc(N(Cc2ccccc2)Cc2ccccc2)cc1
CCRF-CEM leukemia
  TGI: 65.4 µM
EKVX NSCLC
  TGI: > 100 µM
HCT-15 colon
  TGI: > 100 µM
HT29 colon
  TGI: > 100 µM
LOX IMVI melanoma
  TGI: > 100 µM
MDA-MB-231 breast
  TGI: > 100 µM
OVCAR-8 ovarian
  TGI: > 100 µM
SNB-19 CNS
  TGI: > 100 µM
SW-620 colon
  TGI: > 100 µM
T-47D breast
  TGI: > 100 µM

## C=CC1(CC/C(=C\[N+](=O)[O-])c2ccc(OC)c(OC)c2)OCC(C)(C)CO1
CCRF-CEM leukemia
  TGI: > 100 µM
EKVX NSCLC
  TGI: 40.1 µM
HCT-15 colon
  TGI: 38.6 µM
HT29 colon
  TGI: 97.8 µM
LOX IMVI melanoma
  TGI: 55.8 µM
MDA-MB-231 breast
  TGI: 75.8 µM
OVCAR-8 ovarian
  TGI: 36.9 µM
SNB-19 CNS
  TGI: 35.7 µM
SW-620 colon
  TGI: > 100 µM
T-47D breast
  TGI: 33.2 µM

## Cc1cc(C)nc(NS(=O)(=O)c2ccc(NC(=O)c3ccc4nc5ccccc5c(Nc5ccc(S(N)(=O)=O)cc5)c4c3)cc2)n1
CCRF-CEM leukemia
  TGI: 78.3 µM
EKVX NSCLC
  TGI: > 100 µM
HCT-15 colon
  TGI: > 100 µM
HT29 colon
  TGI: > 100 µM
LOX IMVI melanoma
  TGI: > 100 µM
MDA-MB-231 breast
  TGI: > 100 µM
OVCAR-8 ovarian
  TGI: > 100 µM
SNB-19 CNS
  TGI: > 100 µM
SW-620 colon
  TGI: > 100 µM
T-47D breast
  TGI: > 100 µM

## CCOP(=O)(OCC)C(F)(F)c1ccc(CC(NC(=O)OC(C)(C)C)C(=O)O)cc1 (stereo not given)
CCRF-CEM leukemia
  TGI: > 10 µM
EKVX NSCLC
  TGI: > 10 µM
HCT-15 colon
  TGI: > 10 µM
HT29 colon
  TGI: > 10 µM
LOX IMVI melanoma
  TGI: > 10 µM
MDA-MB-231 breast
  TGI: > 10 µM
OVCAR-8 ovarian
  TGI: > 10 µM
SNB-19 CNS
  TGI: > 10 µM
SW-620 colon
  TGI: > 10 µM
T-47D breast
  TGI: > 10 µM

## COc1ncc(/C=C2\OC(=O)c3ccccc32)c(OC)n1
CCRF-CEM leukemia
  TGI: > 100 µM
EKVX NSCLC
  TGI: > 100 µM
HCT-15 colon
  TGI: > 100 µM
HT29 colon
  TGI: > 100 µM
LOX IMVI melanoma
  TGI: > 100 µM
MDA-MB-231 breast
  TGI: > 100 µM
OVCAR-8 ovarian
  TGI: > 100 µM
SNB-19 CNS
  TGI: > 100 µM
SW-620 colon
  TGI: > 100 µM
T-47D breast
  TGI: > 100 µM

## CC(=O)Nc1nc(NC(C)=O)c2[nH]c(CO)nc2n1
CCRF-CEM leukemia
  TGI: > 100 µM
EKVX NSCLC
  TGI: > 100 µM
HCT-15 colon
  TGI: > 100 µM
HT29 colon
  TGI: > 100 µM
LOX IMVI melanoma
  TGI: > 100 µM
MDA-MB-231 breast
  TGI: > 100 µM
OVCAR-8 ovarian
  TGI: > 100 µM
SNB-19 CNS
  TGI: > 100 µM
SW-620 colon
  TGI: > 100 µM
T-47D breast
  TGI: > 100 µM

## Cc1ccc(-c2cc(-c3ccco3)c(C#N)c(=S)n2C2OC(CO)C(O)C(O)C2O)cc1 (stereo not given)
CCRF-CEM leukemia
  GI50: 23.2 µM
  TGI: 99.1 µM
EKVX NSCLC
  TGI: > 100 µM
HCT-15 colon
  TGI: > 100 µM
HT29 colon
  TGI: > 100 µM
LOX IMVI melanoma
  GI50: 8.19 µM and 43.1 µM
  TGI: 38.4 µM and > 100 µM
MDA-MB-231 breast
  GI50: 8.83 µM and 24 µM
  TGI: 35.4 µM and 88.1 µM
OVCAR-8 ovarian
  GI50: 4.73 µM and 30.8 µM
  TGI: 22.6 µM and > 100 µM
SNB-19 CNS
  TGI: > 100 µM
SW-620 colon
  TGI: > 100 µM
T-47D breast
  GI50: 23.6 µM and 53 µM
  TGI: 84.9 µM and > 100 µM

## CC(=O)/C=C/C1=C(C)CCCC1(C)CC(C)C (stereo not given)
CCRF-CEM leukemia
  TGI: 36.6 µM
EKVX NSCLC
  TGI: > 100 µM
HCT-15 colon
  TGI: 30.9 µM
HT29 colon
  TGI: 87.5 µM
LOX IMVI melanoma
  TGI: 39.9 µM
MDA-MB-231 breast
  TGI: > 100 µM
OVCAR-8 ovarian
  TGI: > 100 µM
SNB-19 CNS
  TGI: > 100 µM
SW-620 colon
  TGI: 44.1 µM
T-47D breast
  TGI: 55.5 µM

## N=c1nnc2ccc(Cl)cc2n1O
CCRF-CEM leukemia
  TGI: > 100 µM
EKVX NSCLC
  TGI: > 100 µM
HCT-15 colon
  TGI: > 100 µM
HT29 colon
  TGI: > 100 µM
LOX IMVI melanoma
  TGI: > 100 µM
MDA-MB-231 breast
  TGI: > 100 µM
OVCAR-8 ovarian
  TGI: 92.4 µM
SNB-19 CNS
  TGI: > 100 µM
SW-620 colon
  TGI: > 100 µM
T-47D breast
  TGI: > 100 µM

## Nn1c(Nc2ccc(S(=O)(=O)Nc3ncccn3)cc2)nnc(/C=C/c2c(O)ccc3ccccc23)c1=O
CCRF-CEM leukemia
  TGI: 47.9 µM
EKVX NSCLC
  TGI: 69.6 µM
HCT-15 colon
  TGI: > 100 µM
HT29 colon
  TGI: > 100 µM
LOX IMVI melanoma
  TGI: > 100 µM
MDA-MB-231 breast
  TGI: 71 µM
OVCAR-8 ovarian
  TGI: > 100 µM
SNB-19 CNS
  TGI: > 100 µM
SW-620 colon
  TGI: > 100 µM
T-47D breast
  TGI: 96.8 µM

## C=C1CCN2CC[C@@H](OC(=O)/C(C)=C\C)[C@@H]12
CCRF-CEM leukemia
  TGI: > 100 µM
EKVX NSCLC
  TGI: > 100 µM
HCT-15 colon
  TGI: > 100 µM
HT29 colon
  TGI: > 100 µM
LOX IMVI melanoma
  TGI: > 100 µM
MDA-MB-231 breast
  TGI: > 100 µM
OVCAR-8 ovarian
  TGI: > 100 µM
SNB-19 CNS
  TGI: > 100 µM
SW-620 colon
  TGI: > 100 µM
T-47D breast
  TGI: > 100 µM

## COC(=O)C1=C(C(=O)OC)SC(=C2SCSC3=C2SC(C(=O)OC)=C(C(=O)OC)C32SC3=C(CCCC3)S2)S1
CCRF-CEM leukemia
  TGI: > 100 µM
EKVX NSCLC
  TGI: > 100 µM
HCT-15 colon
  TGI: > 100 µM
HT29 colon
  TGI: > 100 µM
LOX IMVI melanoma
  TGI: > 100 µM
MDA-MB-231 breast
  TGI: > 100 µM
OVCAR-8 ovarian
  TGI: > 100 µM
SNB-19 CNS
  TGI: > 100 µM
SW-620 colon
  TGI: > 100 µM
T-47D breast
  TGI: > 100 µM

## Cc1oc2c(cc(O)c3cc(O)ccc32)c2cccc1-2
CCRF-CEM leukemia
  TGI: > 100 µM
EKVX NSCLC
  TGI: > 100 µM
HCT-15 colon
  TGI: > 100 µM
HT29 colon
  TGI: > 100 µM
LOX IMVI melanoma
  TGI: > 100 µM
MDA-MB-231 breast
  TGI: > 100 µM
OVCAR-8 ovarian
  TGI: > 100 µM
SNB-19 CNS
  TGI: > 100 µM
SW-620 colon
  TGI: > 100 µM
T-47D breast
  TGI: > 100 µM
